We go through six compounds from patent US9682969B2, “Phthalazinone compounds and methods for the treatment of cystic fibrosis” (FLATLEY DISCOVERY LAB, LLC, priority 2013, dated 2017).

The term EC50 denotes the concentration giving half of the maximal effect.

human F508del CFTR, sequence (P13569 other isoform, or with tags, fused parts or gaps del F508-F508): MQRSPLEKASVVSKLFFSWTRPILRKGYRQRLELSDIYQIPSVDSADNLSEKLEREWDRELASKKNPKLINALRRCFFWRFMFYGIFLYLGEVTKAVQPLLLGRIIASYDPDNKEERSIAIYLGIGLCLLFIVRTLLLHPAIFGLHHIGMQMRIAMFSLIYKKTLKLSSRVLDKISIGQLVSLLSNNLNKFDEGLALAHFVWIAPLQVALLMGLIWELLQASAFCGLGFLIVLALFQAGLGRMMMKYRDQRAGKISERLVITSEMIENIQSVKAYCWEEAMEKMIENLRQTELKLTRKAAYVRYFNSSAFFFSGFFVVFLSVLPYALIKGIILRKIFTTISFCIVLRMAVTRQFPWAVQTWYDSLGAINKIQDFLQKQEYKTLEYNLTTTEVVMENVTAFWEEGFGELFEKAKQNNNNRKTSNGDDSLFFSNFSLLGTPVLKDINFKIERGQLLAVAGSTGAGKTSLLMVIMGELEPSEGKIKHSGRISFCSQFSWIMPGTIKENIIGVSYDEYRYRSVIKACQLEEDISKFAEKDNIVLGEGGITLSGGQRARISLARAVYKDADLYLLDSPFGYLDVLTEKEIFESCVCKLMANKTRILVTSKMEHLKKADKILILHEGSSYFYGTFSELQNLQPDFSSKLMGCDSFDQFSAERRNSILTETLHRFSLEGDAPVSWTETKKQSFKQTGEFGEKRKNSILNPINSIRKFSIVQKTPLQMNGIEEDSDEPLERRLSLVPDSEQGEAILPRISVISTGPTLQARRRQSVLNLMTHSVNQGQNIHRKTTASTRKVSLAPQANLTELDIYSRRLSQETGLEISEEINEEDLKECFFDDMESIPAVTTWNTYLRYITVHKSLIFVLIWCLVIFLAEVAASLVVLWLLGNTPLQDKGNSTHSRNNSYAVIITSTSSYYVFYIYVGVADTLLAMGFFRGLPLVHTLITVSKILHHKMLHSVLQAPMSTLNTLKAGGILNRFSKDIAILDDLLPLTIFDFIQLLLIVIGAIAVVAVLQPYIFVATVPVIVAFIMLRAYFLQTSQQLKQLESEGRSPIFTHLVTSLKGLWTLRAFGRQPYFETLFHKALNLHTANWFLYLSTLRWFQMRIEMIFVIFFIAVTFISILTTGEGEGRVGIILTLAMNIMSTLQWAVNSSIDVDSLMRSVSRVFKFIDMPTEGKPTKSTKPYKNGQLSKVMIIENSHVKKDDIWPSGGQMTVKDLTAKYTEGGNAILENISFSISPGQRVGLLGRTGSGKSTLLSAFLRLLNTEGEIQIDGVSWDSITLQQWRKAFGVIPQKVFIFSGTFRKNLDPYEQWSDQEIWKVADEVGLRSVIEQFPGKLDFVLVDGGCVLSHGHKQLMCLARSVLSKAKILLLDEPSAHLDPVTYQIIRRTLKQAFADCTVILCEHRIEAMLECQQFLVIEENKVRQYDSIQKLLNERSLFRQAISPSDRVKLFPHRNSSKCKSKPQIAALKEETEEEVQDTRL

For this assay, the target named is human F508del CFTR (Homo sapiens (Human), UniProt P13569, DEL508-508). As to the kind of experiment: CFTR-YFP High Throughput Assay (YFP flux assay, FRT cells). It counts as cell-based. The conditions noted are these: FRT cells expressing human F508del CFTR and YFP. As to the method:
This protocol is designed to selectively screen small molecule compounds for F508del CFTR corrector activities in the YFP (yellow fluorescent protein) flux assay. In this protocol, the cells are incubated with testing compounds for 24 hours, washed with PBS, stimulated with forskolin and a standard potentiator, and fluorescence in each plate well is measured kinetically read on a 384-well plate reader, such as the Hamamatsu FDSS-6000.
YFP fluorescence intensity values are acquired at high speed before and after iodide buffer is injected to the assay cells. Iodide enters the cells via active CFTR channels in the plasma membrane, and quenches the YFP fluorescence. The rate of fluorescence quenching is proportionate to the total CFTR activity in the cell membrane. F508del CFTR correctors increase the number of CFTR molecules in the testing cell plasma membrane, and thereby accelerate YFP quenching.
This method was initially developed for bench top plate readers (Galietta, J, Jayaraman, S and Verkman, A S. Cell-based assay for high-throughput quantitative screening of CFTR chloride transport agonists. Am. J. Physiol. Cell Physiol. (2001), 281: C173), and was adapted to the HTS format (Sui J, Cotard S, Andersen J, Zhu P, Staunton J, Lee M, Lin S. Optimization of a Yellow fluorescent protein-based iodide influx high-throughput screening assay for cystic fibrosis transmembrane conductance regulator (CFTR) modulators. Assay Drug Dev Technol. (2010), 8: 656-668).
Fisher Rat Thyroid (FRT) cells stably expressing both human F508del CFTR and a halide-sensitive yellow fluorescent protein (YFP-H148Q/I152L 25,22) (Galietta et al. Am. J. Physiol Cell Physiol 281(5), C1734, 2001) were cultured on plastic surface in Coon's modified Ham's F12 medium supplemented with FBS 10%, L-glutamine 2 mM, penicillin 100 U/ml, and streptomycin […]. G418 (0.75-1.0 mg/ml) and zeocin (3.2 ug/ml) were used for selection of FRT cells expressing F508del CFTR and YFP. For primary screening, FRT cells were plated into 384-well black wall, transparent bottom microtiter plates (Costar; Corning Inc.) at a cell density of 20,000-40,000 per well. Test compound was applied to the cells at varying concentrations ranging from 2 nM-40 μM in either a 2-fold or 3-fold dilution series. Cells were incubated in a cell culture incubator at 37° C. with 5% CO2 for 24-26 h. Assay plates were washed with DPBS media (Thermo, cat# SH30028.02) to remove unbound cells and compound. Stimulation media (25 μL) containing 20 μM Forskolin & 30 μM P3 [6-(Ethyl-phenyl-sulfonyl)-4-oxo-1,4-dihydro-quinoline-3-carboxylic acid 2-methoxy-benzylamide] in Hams F-12 coon's modified media was added to the plate wells and incubated at room temperature for 60-120 min. 25 μL of HEPES-PBS-I buffer (10 mM HEPES, 1 mM MgCl2, 3 mM KCl, 1 mM CaCl2, 150 mM NaI) was then added and fluorescence quench curves (Excitation 500 nm/Emission 540 nm; exposure 136 ms) were immediately recorded on an FDSS-6000 plate reader (Hamamatsu). Quench rates were derived from least squares fitting of the data as described by Sui et al (2010).
This protocol is designed to selectively screen small molecule compounds for F508del CFTR potentiator activities in the YFP (yellow fluorescent protein) flux assay. Such compounds act acutely to stimulate CFTR already expressed on the membrane surface. In this protocol, the cells are incubated at 27° C. for 24 hours to homogeneously boost F508del CFTR expression in the cell membrane (low temperature correction), washed with PBS, treated with test compound, and CFTR activity is stimulated with forskolin for 1-2 hr. Measurement of ion flux is initiated by addition of iodide-containing buffer, and YFP quenching is kinetically recorded using a 384-well plate reader, such as the Hamamatsu FDSS-6000.
YFP fluorescence intensity values are acquired at high speed over a 1 min time course before and after iodide buffer is injected to the assay cells. […]
`Cc1nc2ccc(N(C)C(=O)Cn3nc(-c4cccc(Cl)c4)c4ccc(OC5CCCCC5)cc4c3=O)cc2o1` [Example 26, 2-(4-(3-chlorophenyl)-7-(cyclohexyloxy)-1-oxophthalazin-2(1H)-yl)-N-methyl-N-(2-methylbenzo[d]oxazol-6-yl)acetamide]: the EC50 was below 10 µM.

`Cc1nc2ccc(N(C)C(=O)Cn3nc(-c4cccc(F)c4)c4ccc(OC5CCOCC5)cc4c3=O)cc2o1` [Example 27, 2-(4-(3-fluorophenyl)-1-oxo-7-((tetrahydro-2H-pyran-4-yl)oxy)phthalazin-2(1H)-yl)-N-methyl-N-(2-methylbenzo[d]oxazol-6-yl)acetamide]: the EC50 was below 10 µM.

As for `Cc1nc2ccc(N(C)C(=O)Cn3nc(-c4cccc(F)c4)c4ccc(OC5CCCCC5)cc4c3=O)cc2o1` [Example 28, 2-(7-(cyclohexyloxy)-4-(3-fluorophenyl)-1-oxophthalazin-2(1H)-yl)-N-methyl-N-(2-methylbenzo[d]oxazol-6-yl)acetamide], the EC50 is below 10 µM.

As to `Cc1nc2ccc(N(C)C(=O)Cn3nc(-c4cccc(Cl)c4)c4ccc(OC5CCOCC5)cc4c3=O)cc2o1` [Example 29, 2-(4-(3-chlorophenyl)-1-oxo-7-((tetrahydro-2H-pyran-4-yl)oxy)phthalazin-2(1H)-yl)-N-methyl-N-(2-methylbenzo[d]oxazol-6-yl)acetamide], the half-maximal effective concentration (EC50) is below 10 µM.

`CCOc1cc2c(=O)n(CC(=O)N(C)c3ccc4nc(C)oc4c3)nc(-c3cccc(F)c3)c2cc1Cl` [Example 30, 2-(6-chloro-7-ethoxy-4-(3-fluorophenyl)-1-oxophthalazin-2(1H)-yl)-N-methyl-N-(2-methylbenzo[d]oxazol-6-yl)acetamide]: the 50% effective concentration (EC50) was below 10 µM.

Take `CCOc1cc2c(=O)n(CC(=O)N(C)c3ccc4nc(C)oc4c3)nc(-c3cccc(Cl)c3)c2cc1Cl` [Example 31, 2-(6-chloro-4-(3-chlorophenyl)-7-ethoxy-1-oxophthalazin-2(1H)-yl)-N-methyl-N-(2-methylbenzo[d]oxazol-6-yl)acetamide]: the EC50 was below 10 µM.
